Test results taken from patent US9770481B2, “Inhibitors of NOX1” (UNIVERSITY OF PITTSBURGH—OF THE COMMONWEALTH SYSTEM OF …, priority 2011, dated 2017).

Assays:
[1] = tested on: HPAEC constitutively expressing Nox1; assay: Angiotensin II-induced O2- production by HPAEC (cytochrome c); assay type: cell-based, human; conditions: 100 nM angiotensin II, 10 μM peptide, 1 hr
Method: FIG. 10. O2^− Production by human pulmonary artery endothelial cells (“HPAEC”) which were either (i) untreated; (ii) treated with 100 nM angiotensin II; (iii) treated with 100 nM angiotensin II and 10 μM NoxA1ds; or (iv) treated with 100 nM angiotensin II and 10 μM SCRMB peptide. Results represent mean±SEM, n=5-9, 2-3 separate experiments.
In further studies, HPAEC constitutively expressing Nox1 were treated with vehicle or Angiotensin II (AngII, one mediator of hypertension) alone or in combination with NoxA1ds, or SCRMB for 1 hr. O2^− production was then measured via reduction of cytochrome c.

[2] = target: T1, Nox1 (Homo sapiens, UniProt Q9Y5S8); assay: O2- production by COS22 cells transfected with Nox1 (cytochrome c reduction); assay type: cell-based; conditions: COS 22; at a dose of 1.0 μM; read-out: Maximal inhibition of total O2- production
T1 construct: expressed in transfected cells; host or cells: COS22 (monkey kidney COS cells stably expressing human p22phox)
T1 sequence (Q9Y5S8 1-564): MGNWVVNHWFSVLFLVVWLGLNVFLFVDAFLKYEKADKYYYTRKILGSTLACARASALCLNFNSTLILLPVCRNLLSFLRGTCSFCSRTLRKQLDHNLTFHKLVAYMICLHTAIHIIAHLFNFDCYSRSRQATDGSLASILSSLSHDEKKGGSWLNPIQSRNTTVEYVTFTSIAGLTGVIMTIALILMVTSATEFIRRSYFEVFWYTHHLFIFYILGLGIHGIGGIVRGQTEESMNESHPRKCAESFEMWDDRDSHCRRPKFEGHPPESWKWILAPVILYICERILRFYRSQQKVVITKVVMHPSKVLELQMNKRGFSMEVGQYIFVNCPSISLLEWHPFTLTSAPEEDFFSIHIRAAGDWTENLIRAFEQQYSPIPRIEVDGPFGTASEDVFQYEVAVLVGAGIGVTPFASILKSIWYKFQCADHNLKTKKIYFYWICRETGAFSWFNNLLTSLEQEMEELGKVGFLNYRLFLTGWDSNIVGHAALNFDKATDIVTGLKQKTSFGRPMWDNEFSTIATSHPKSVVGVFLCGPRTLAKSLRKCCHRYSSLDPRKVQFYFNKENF
T1 sequence (P13498 1-195 partner): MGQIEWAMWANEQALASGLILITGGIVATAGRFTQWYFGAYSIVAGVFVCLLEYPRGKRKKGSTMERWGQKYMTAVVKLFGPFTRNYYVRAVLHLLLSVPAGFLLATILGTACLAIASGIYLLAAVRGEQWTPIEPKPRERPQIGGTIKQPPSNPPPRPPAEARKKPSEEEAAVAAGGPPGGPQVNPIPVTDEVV
Method: Experiments were performed to test the effect of NoxA1ds on O2^− production by Nox1. COS22 is a monkey kidney COST cell line expressing transgenic human p22phox and was produced by stable transfection of the full-length p22phox cDNA into parental COST wild-type cells. COS22 cells were transfected with Nox1 to express the Nox1 enzyme and were then treated with either NoxA1ds or its scrambled control (SCRMB). Production of O2^− was calculated by monitoring the reduction of cytochrome c for 15 minutes post NADPH addition and subtracting baseline cytochrome c reduction occurring in the presence of SOD.

[3] = target: T2, Nox2 (Homo sapiens, UniProt P04839); assay: O2- production by lysates of COS cells transfected with Nox2 oxidase, LiDS-stimulated (cytochrome c); assay type: cell-based; conditions: 0.1 nM to 10,000 nM
T2 construct: expressed in transfected cells; host or cells: COS22 / COS cells, transient transfection; cell lysates
T2 sequence (P04839 2-570 limits assumed): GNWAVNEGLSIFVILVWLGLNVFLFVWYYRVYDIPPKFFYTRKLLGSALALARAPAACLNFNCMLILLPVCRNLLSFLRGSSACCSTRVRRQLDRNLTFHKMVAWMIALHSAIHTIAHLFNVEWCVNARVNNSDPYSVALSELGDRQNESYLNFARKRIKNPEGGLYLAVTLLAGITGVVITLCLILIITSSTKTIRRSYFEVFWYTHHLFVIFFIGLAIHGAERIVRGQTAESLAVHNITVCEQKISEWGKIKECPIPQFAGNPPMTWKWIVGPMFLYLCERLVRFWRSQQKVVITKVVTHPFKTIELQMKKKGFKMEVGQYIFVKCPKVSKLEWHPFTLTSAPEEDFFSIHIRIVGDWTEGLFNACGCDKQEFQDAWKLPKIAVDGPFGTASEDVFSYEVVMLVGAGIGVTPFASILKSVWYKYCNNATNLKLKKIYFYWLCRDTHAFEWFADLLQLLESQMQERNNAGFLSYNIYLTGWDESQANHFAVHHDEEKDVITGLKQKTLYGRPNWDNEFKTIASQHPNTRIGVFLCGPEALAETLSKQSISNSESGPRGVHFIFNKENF
T2 sequence (P13498 1-195 partner): T1 sequence (P13498 1-195 partner)
Method: To test whether the inhibitory effect of NoxA1ds is specific to Nox1, the effect of NoxA1ds was tested on cells expressing Nox2, Nox4, and Nox5 as well as on purified xanthine oxidase enzyme. To test the effect on Nox2, production of O2^− was measured by the reduction of cytochrome c by cell lysates from COS cells transiently transfected with the Nox2 oxidase, stimulated with LiDS, and the treated with increasing concentrations of NoxA1ds (from 0.1 nM to 10,000 nM). Similarly, production of H2O2 was measured by Amplex red fluorescence by COS cells transiently transfected with the Nox4 oxidase and treated with increasing concentrations of NoxA1ds (from 100 nM to 10,000 nM). Production of O2^− was also measured by the reduction of cytochrome c by cell lysates from HEK293 cells stably transfected with the Nox5 oxidase stimulated with Ca^2+, and treated with increasing concentrations of NoxA1ds (from 0.1 nM to 10,000 nM). Finally, production of O2^− was measured by Electron Paramagnetic Resonance from pure xanthine oxidase enzyme preparations, stimulated with hypoxanthine and treated with increasing concentrations of NoxA1ds (from 0.1 nM to 10,000 nM).

- inhibition at 1 µM [2]: 88%
Substance: H-EPVDALGKAKV-NH2 [NoxA1ds, [NH3^+]-EPVDALGKAKV-[CONH2]]
- AngII-induced O2- production [1]: completely inhibited
- Inhibitory effect on Nox2 O2- production [3]: did not exhibit a significant inhibitory effect
